Assay results published in patent publication US10227361B2, “Fused imidazobenzothiazole compounds” (TORRENT PHARMACEUTICALS LIMITED, priority 2014, dated 2019).

Target: T1, purified recombinant human p38 alpha MAPK (Homo sapiens, UniProt Q16539)
T1 construct: purchased Millipore, USA
Assay: Inhibition of p38 alpha MAPK activity: TR-FRET kinase assay
Format: biochemical
Settings: read-out: P38α Inhibition; for inhibition at 1 µM: Concentration 1 μM
Method: Inhibition of p38 Alpha MAPK Activity: Time-Resolved Fluorescence Resonance Energy Transfer Kinase Standard Assay (TR-FRET Assay)
Compounds of present invention at various concentrations were premixed with DMSO. The experiment was initiated by mixing 0.5% 1.0% DMSO as vehicle/compounds with purified recombinant human p38 alpha MAPK (Millipore, USA) in the wells and 15 min incubation at RT. Thereafter, 30 nM of Biotinylated GST-ATF2 (Activation Transcription Factor2) and 100 μM of ATP were added in to the wells containing reaction mixture, followed by reincubation for 60 minutes at RT. Reaction was terminated by addition of 10 mM of EDTA and detection reagent containing anti-phosphothreonine ATF2 antibody (Perkin Elmer, USA) labelled with europium chelate and APC (Allophycocyanin) labeled streptavidin, into the reaction mixture which was further incubated for 60 minutes at room temperature. The degree of phosphorylation of the substrate (GST-ATF2) was measured using Envision multimode reader (Perkin Elmer). Percentage inhibition of p38 kinase activity was calculated by determining ratio of specific europium 665 nm energy transfer signal to reference 615 nm signal.

T1 sequence (Q16539 whole entry): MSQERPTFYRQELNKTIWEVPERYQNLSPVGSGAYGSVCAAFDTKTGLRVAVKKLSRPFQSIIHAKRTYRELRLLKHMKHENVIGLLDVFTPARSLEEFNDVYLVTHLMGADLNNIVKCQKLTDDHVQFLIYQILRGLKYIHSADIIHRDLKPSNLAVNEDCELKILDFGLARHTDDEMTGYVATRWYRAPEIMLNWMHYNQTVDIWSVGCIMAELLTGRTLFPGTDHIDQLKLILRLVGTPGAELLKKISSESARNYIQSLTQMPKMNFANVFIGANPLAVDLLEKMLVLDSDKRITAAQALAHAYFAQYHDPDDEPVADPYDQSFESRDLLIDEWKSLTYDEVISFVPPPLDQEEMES

Row | SMILES | inhibition at 1 µM [%] | inhibition at 0.1 µM (Concentration 100 nM) [%]
1 | Cc1ccc(-n2nc(C(C)(C)C)cc2NC(=O)Nc2ccc(Oc3ccc4c(c3)sc3nc(C(=O)NCCO)cn34)cc2)cc1 [Compound 4, 7-[4-({[3-tert-butyl-1-(4-methylphenyl)-1H-pyrazol-5-yl]carbamoyl}amino)phenoxy]-N-(2-hydroxyethyl)imidazo[2,1-b][1,3]benzothiazole-2-carboxamide] | 80 to 100 | –
2 | CC(C)(C)c1cc(NC(=O)Nc2ccc(Oc3ccc4c(c3)sc3ncc(C(=O)O)n34)cc2)n(-c2ccc(O)c(Cl)c2)n1 [Compound 8, 7-[4-({[3-tert-butyl-1-(3-chloro-4-hydroxyphenyl)-1H-pyrazol-5-yl]carbamoyl}amino)phenoxy]imidazo[2,1-b][1,3]benzothiazole-3-carboxylic acid] | 80 to 100 | –
3 | CC(C)(C)c1cc(NC(=O)Nc2ccc(Oc3ccc4c(c3)sc3ncc(CO)n34)cc2)n(-c2ccc(O)c(Cl)c2)n1 [Compound 27, 1-[3-tert-butyl-1-(3-chloro-4-hydroxyphenyl)-1H-pyrazol-5-yl]-3-(4-{[3-(hydroxymethyl)imidazo[2,1-b][1,3]benzothiazol-7-yl]oxy}phenyl)urea] | 60 to 80 | –
4 | COc1ccc(-n2nc(C(C)(C)C)cc2NC(=O)Nc2ccc(Oc3ccc4c(c3)sc3ncc(C(=O)NCCO)n34)cc2)cc1Cl [Compound 7, 7-[4-({[3-tert-butyl-1-(3-chloro-4-methoxyphenyl)-1H-pyrazol-5-yl]carbamoyl}amino)phenoxy]-N-(2-hydroxyethyl)imidazo[2,1-b][1,3]benzothiazole-3-carboxamide] | 60 to 80 | –
5 | CCOC(=O)c1cnc2sc3cc(Oc4ccccc4CNC(=O)Nc4cc(C(C)(C)C)nn4-c4ccc(O)c(Cl)c4)ccc3n12 [Compound 25, ethyl 7-{2-[({[3-tert-butyl-1-(3-chloro-4-hydroxyphenyl)-1H-pyrazol-5-yl]carbamoyl}amino)methyl]phenoxy}imidazo[2,1-b][1,3]benzothiazole-3-carboxylate] | – | 60 to 80
6 | CCOC(=O)c1cnc2sc3cc(Oc4ccccc4CNC(=O)Nc4cc(OC)cc(OC)c4)ccc3n12 [Compound 45, ethyl 7-[2-({[(3,5-dimethoxyphenyl)carbamoyl]amino}methyl)phenoxy]imidazo[2,1-b][1,3]benzothiazole-3-carboxylate] | ≤ 20 | –
7 | CC(C)(C)c1cc(NC(=O)NCc2ccccc2Oc2ccc3c(c2)sc2ncc(CN4CCC(O)CC4)n23)n(-c2ccc(O)c(Cl)c2)n1 [Compound 65, 1-[3-tert-butyl-1-(3-chloro-4-hydroxyphenyl)-1H-pyrazol-5-yl]-3-[2-({3-[(4-hydroxypiperidin-1-yl)methyl]imidazo[2,1-b][1,3]benzothiazol-7-yl}oxy)benzyl]urea] | 60 to 80 | –
8 | COCc1c(C)nc2sc3cc(Oc4ccccc4CNC(=O)Nc4ccc(OC)c(Cl)c4)ccc3n12 [Compound 48, 1-(3-chloro-4-methoxyphenyl)-3-(2-{[3-(methoxymethyl)-2-methylimidazo[2,1-b][1,3]benzothiazol-7-yl]oxy}benzyl)urea] | 60 to 80 | –
9 | O=C(Nc1ccc(Oc2ccc3c(c2)sc2ncc(C(=O)O)n23)cc1)NC(CO)c1ccccc1 (centres unmarked) [Compound 41, 7-(4-{[(2-hydroxy-1-phenylethyl)carbamoyl]amino}phenoxy)imidazo[2,1-b][1,3]benzothiazole-3-carboxylic acid] | ≤ 20 | –
10 | CCOC(=O)c1cnc2sc3cc(Oc4ccc(NC(=O)Nc5cc(C(C)(C)C)nn5-c5ccc(O)c(Cl)c5)cc4)ccc3n12 [Compound 26, ethyl 7-[4-({[3-tert-butyl-1-(3-chloro-4-hydroxyphenyl)-1H-pyrazol-5-yl]carbamoyl}amino)phenoxy]imidazo[2,1-b][1,3]benzothiazole-3-carboxylate] | ≤ 20 | –
11 | CC(C)(C)c1cc(NC(=O)NCc2ccccc2Oc2ccc3c(c2)sc2ncc(C(=O)NC(CO)CO)n23)n(-c2ccc(O)c(Cl)c2)n1 [Compound 21, 7-{2-[({[3-tert-butyl-1-(3-chloro-4-hydroxyphenyl)-1H-pyrazol-5-yl]carbamoyl}amino)methyl]phenoxy}-N-(1,3-dihydroxypropan-2-yl)imidazo[2,1-b][1,3]benzothiazole-3-carboxamide] | 80 to 100 | –
12 | CC(C)(C)c1cc(NC(=O)Nc2ccc(Oc3ccc4c(c3)sc3nc(C(=O)NCCN5CCOCC5)cn34)cc2)n(-c2ccc(O)c(Cl)c2)n1 [Compound 1, 7-[4-({[3-tert-butyl-1-(3-chloro-4-hydroxyphenyl)-1H-pyrazol-5-yl]carbamoyl}amino)phenoxy]-N-[2-(morpholin-4-yl)ethyl]imidazo[2,1-b][1,3]benzothiazole-2-carboxamide] | 40 to 60 | –
13 | CCOC(=O)c1cnc2sc3cc(Oc4ccccc4CNC(=O)Nc4cc(C(C)(C)C)nn4-c4ccc(OC)cc4)ccc3n12 [Compound 12, ethyl 7-{2-[({[3-tert-butyl-1-(4-methoxyphenyl)-1H-pyrazol-5-yl]carbamoyl}amino)methyl]phenoxy}imidazo[2,1-b][1,3]benzothiazole-3-carboxylate] | 80 to 100 | –
14 | CCOC(=O)c1cnc2sc3cc(Oc4ccc(NC(=O)Nc5c(-c6ccccc6)noc5C)cc4)ccc3n12 [Compound 43, ethyl 7-(4-{[(5-methyl-3-phenyl-1,2-oxazol-4-yl)carbamoyl]amino}phenoxy)imidazo[2,1-b][1,3]benzothiazole-3-carboxylate] | ≤ 20 | –
15 | CCOC(=O)c1cnc2sc3cc(Oc4ccc(NC(=O)Nc5cc(C(C)(C)C)nn5-c5ccc(OC)c(Cl)c5)cc4)ccc3n12 [Compound 5, ethyl 7-[4-({[3-tert-butyl-1-(3-chloro-4-methoxyphenyl)-1H-pyrazol-5-yl]carbamoyl}amino)phenoxy]imidazo[2,1-b][1,3]benzothiazole-3-carboxylate] | 20 to 40 | –
16 | COc1ccc(-n2nc(C(C)(C)C)cc2NC(=O)Nc2ccc(Sc3ccc4c(c3)sc3ncc(C(=O)O)n34)cc2)cc1 [Compound 10, 7-{[4-({[3-tert-butyl-1-(4-methoxyphenyl)-1H-pyrazol-5-yl]carbamoyl}amino)phenyl]sulfanyl}imidazo[2,1-b][1,3]benzothiazole-3-carboxylic acid] | 80 to 100 | –
17 | Cc1nc2sc3cc(Oc4ccccc4CNC(=O)Nc4cc(C(C)(C)C)nn4-c4ccc(O)c(Cl)c4)ccc3n2c1CN1CCOCC1 [Compound 40, 1-[3-tert-butyl-1-(3-chloro-4-hydroxyphenyl)-1H-pyrazol-5-yl]-3-(2-{[2-methyl-3-(morpholin-4-ylmethyl)imidazo[2,1-b][1,3]benzothiazol-7-yl]oxy}benzyl)urea] | 80 to 100 | –
18 | COCc1c(C)nc2sc3cc(Oc4ccccc4CNC(=O)Nc4cc(C(C)(C)C)no4)ccc3n12 [Compound 50, 1-(3-tert-butyl-1,2-oxazol-5-yl)-3-(2-{[3-(methoxymethyl)-2-methylimidazo[2,1-b][1,3]benzothiazol-7-yl]oxy}benzyl)urea] | 80 to 100 | –
19 | COCc1c(C)nc2sc3cc(Oc4ccccc4CNC(=O)Nc4cc(C(C)(C)C)nn4-c4ccc(O)c(Cl)c4)ccc3n12 [Compound 37, 1-[3-tert-butyl-1-(3-chloro-4-hydroxyphenyl)-1H-pyrazol-5-yl]-3-(2-{[3-(methoxymethyl)-2-methylimidazo[2,1-b][1,3]benzothiazol-7-yl]oxy}benzyl)urea] | 80 to 100 | –
20 | COc1ccc(-n2nc(C(C)(C)C)cc2NC(=O)Nc2ccc(Oc3ccc4c(c3)sc3ncc(C(=O)O)n34)cc2)cc1Cl [Compound 6, 7-[4-({[3-tert-butyl-1-(3-chloro-4-methoxyphenyl)-1H-pyrazol-5-yl]carbamoyl}amino)phenoxy]imidazo[2,1-b][1,3]benzothiazole-3-carboxylic acid] | 80 to 100 | –
21 | Cc1ccc(-n2nc(C(C)(C)C)cc2NC(=O)Nc2ccc(Oc3ccc4c(c3)sc3nc(C(=O)NCCN5CCOCC5)cn34)cc2)cc1 [Compound 2, 7-[4-({[3-tert-butyl-1-(4-methylphenyl)-1H-pyrazol-5-yl]carbamoyl}amino)phenoxy]-N-[2-(morpholin-4-yl)ethyl]imidazo[2,1-b][1,3]benzothiazole-2-carboxamide] | 60 to 80 | –
22 | CC(C)(C)c1cc(NC(=O)NCc2ccccc2Oc2ccc3c(c2)sc2ncc(C(=O)O)n23)n(-c2ccc(O)cc2)n1 [Compound 13, 7-{2-[({[3-tert-butyl-1-(4-hydroxyphenyl)-1H-pyrazol-5-yl]carbamoyl}amino)methyl]phenoxy}imidazo[2,1-b][1,3]benzothiazole-3-carboxylic acid] | 80 to 100 | –
23 | COc1c(NC(=O)NCc2ccccc2Oc2ccc3c(c2)sc2ncc(CN4CCOCC4)n23)cc(C(C)(C)C)cc1NS(C)(=O)=O [Compound 74, N-(5-tert-butyl-2-methoxy-3-{[(2-{[3-(morpholin-4-ylmethyl)imidazo[2,1-b][1,3]benzothiazol-7-yl]oxy}benzyl)carbamoyl]amino}phenyl) methanesulfonamide] | 60 to 80 | –
